The results in this text go back to patent US20050267050A1, “Compositions and methods for treating mdma-induced toxicity” (YEDA RESEARCH AND DEVELOPMENT CO. LTD., priority 2002, published 2005).

The subject of the test is MDMA acute toxicity in mice. Nature of the test: Protective activity against MDMA acute toxicity (survival) in mice. It counts as in vivo, C57B1/6J mice. Conditions: inhibitor i.p. 5-120 minutes before toxic dose of MDMA; FIG. 6A. On the procedure: Next step was to determine whether compounds blocking the enhanced expression of GABA transporters may restraint MDMA-induced hyperthermia. We ran trials to determine whether the mortality levels causes by MDMA administration would be affected by treatment with suspected GABA transporter inhibiting compounds Tiagabine, nipecotic acid derivative NO-711, and Vigabatrin which have been used hitherto as anti-epileptics.
Mice were administered dose(s) of mg/ml of MDMA according to the following schedule and were […] injected with a dose of the GABA transporter blocker. In the first set of experiments the effective toxic dose of MDMA was determined. C57B1/6J mice, 2-3 months old, 6 mice in each group, were tested with different concentration of the drug, prepared in saline and injected intraperitoneally. Saline solution was used as a control. The lowest concentration of the drug causing 100% death within 60 minutes was used in the following experiments. Mice (8 in each group) were injected (i.p.) with different concentrations of the tested GABA transporter inhibitor, or other compound, and 5-120 minutes later were injected with the toxic dose of MDMA. […]

Turning to `Cl.O=C(O)C1=CCCN(CCON=C(c2ccccc2)c2ccccc2)C1` [NO-711, 1-(2(((diphenylmethylene)imino)oxy)ethyl)-1,2,5,6-tetrahydro-3-pyridinecarboxylic acid hydrochloride], the “Survival of MDMA-treated mice” value is recorded as “significantly improved the survival”.
